{"source": "patent US4861774A", "about": "“Method of treating tumors using tetracyclo compounds” (priority 1984, dated 1989)", "key": {"[1]": {"test_system": "Bacillus subtilis ATCC 6633", "test": "Antimicrobial activity, serial broth dilution (Test 2), Bacillus subtilis", "format": "cell-based", "conditions": "ATCC6633, overnight incubation at 37° C.", "description": "Antimicrobial activity of the FR-900482 substance against some bacteria was determined by a serial broth dilution method in bouillon media for bacteria. Minimum inhibitory concentrations (MIC) were expressed in terms of μg/ml after overnight incubation at 37° C."}, "[2]": {"test_system": "AH130 Hepatoma", "test": "in vivo rat ascitic tumor model, AH130 Hepatoma (Test 8)", "parameters": "species or system rats (Donryu)", "conditions": "1.0 mg/kg i.p., days 1, 5 and 9; median survival time", "excerpt": "AH130 Hepatoma (1×10^6 cells), maintained i.p. by serial passage in female Donryu rats, was implanted i.p. to female Donryu rats on day 0, and the test compounds or vehicle were given i.p. to the rats once a day on days 1, 5 and 9. Ten rats were used for each test group or vehicle-treated control group.\nDrug efficacy against the ascitic tumors is expressed as percentage of the median survival time of the test group to that of the control group. [formula]"}, "[3]": {"test": "Existence as mixture or single component by NMR spectra or silica gel TLC with chromatoscanner", "format": "physicochemical"}, "[4]": {"test": "Mixture ratios of the two components under various pH values", "format": "physicochemical", "conditions": "pH 1.0, 0.1 N hydrochloric acid", "description": "The FR-900482 substance was dissolved in various buffer solutions so as to make its concentration to 10 mg/ml. After allowing to stand for 2 hours, 4 μl of each of these solutions was subjected to silica gel thin layer chromatography using a mixture of chloroform and methanol (4:1, v/v) as a developing solvent. After developing, the mixture ratios of the two components were calculated by a chromatoscanner at 254 nm, the results of which are shown in the following."}, "[5]": {"test": "Acute toxicity in ddY mice (Test 3)", "conditions": "mouse, in vivo"}, "[6]": {"test_system": "Human LX-1 lung", "test": "Human LX-1 lung tumor in nude mice (Test 9)", "format": "in vivo, human (in BALB/c nu/nu mice)", "conditions": "18.0 mg/kg i.v., days 12, 16 & 20; evaluation day 28", "description": "Human LX-1 lung or MX-1 mammary (each fragment, 2×2×2 mm), maintained s.c. by serial passage in male BALB/c nu/nu mice, was implanted s.c. to male BALB/c nu/nu mice on day 0, and the test compounds or vehicle were given i.v. to the mice once a day on specified days in Table 9.\nTumor weight was calculated as follows: (Tumor length and width were measured by caliper.)\nTumor weight (mg)=1/2×a×b^2, where a represents length and b represents width (mm).\nTumor weights (initial) and (last) were calculated on the first injection day (just before dosing) and on day 21, 27 or 28 (the last evaluation day), respectively.\nFive mice were used for each test group and 5 or 10 mice were used for each vehicle-treated control group.\nDrug efficacy was expressed as percentage of mean tumor weight of the test group to that of the control group. [formula]"}}}
{"smiles": "NC(=O)OCC1c2c(O)cc(C=O)cc2N2CC3NC3C1(O)O2", "note": "(centres unmarked) [FR-900482 substance, 4-Formyl-6,9-dihydroxy-14-oxa-1,11-diazatetracyclo[7.4.1.0^2,7.0^10,12]tetradeca-2,4,6-trien-8-ylmethyl carbamate]", "values": [{"measurement": "MIC", "setting": "[1]", "result": 50, "unit": "µg/mL"}, {"measurement": "T/C", "setting": "[2]", "result": "> 429", "unit": "%"}, {"measurement": "existence as mixture or single component", "setting": "[3]; around neutral condition", "result": "mixture of two components"}, {"measurement": "existence as mixture or single component", "setting": "[3]; around pH 1 condition", "result": "single component"}, {"measurement": "Ratios of the two components", "setting": "[4]", "result": "single component"}, {"measurement": "LD50", "setting": "[5]; ip, intraperitoneal injection", "result": 32, "unit": "mg/kg"}, {"measurement": "LD50", "setting": "[5]; intravenous injection", "result": 32, "unit": "mg/kg"}, {"measurement": "1-T\"/C\"", "setting": "[6]", "result": 97, "unit": "%"}]}
